# Measured values published in US20110305777A1, “DIMERIC IAP ANTAGONISTS” (Tetralogic Pharmaceuticals Corporation, priority 2006, published 2011).
# Target: XIAP BIR-3 and cIAP-1 BIR-3 (lower Kd of the two reported)
# Test: Fluorescence polarization binding to IAP-BIR3 (competition with AbuRPF-K(5-Fam)-NH2)
# Details: Table 1; lower of the Kd for XIAP BIR-3 and cIAP-1 BIR-3
# Protocol: The binding affinities of the compounds listed in Table 1 to an IAP were determined substantially as described by Nikolovska-Coleska, Z. et. al. (Analytical Biochemistry (2004), vol. 332:261-273) using a variety of fluorogenic substrates and is reported as a Kd value. Briefly, various concentrations of IAP antagonists were mixed with 5 nM fluorescently labeled peptide (AbuRPF-K(5-Fam)-NH2) and 40 nM of an IAP-BIR3 for 15 min at RT in […] of 0.1M Potassium Phosphate buffer, pH 7.5 containing […] bovine g-globulin. Following incubation, the polarization values (mP) were measured on a Victor2V using a 485 nm excitation filter and a 520 nm emission filter. IC50 values were determined from the plot using nonlinear least-squares analysis using GraphPad Prism. […] The reported Kd values are the lower of the Kd for XIAP BIR-3 and cIAP-1 BIR-3.
# The following compound of the invention was also made and tested. The reported Kd value is the lower of the Kd for XIAP BIR-3 and cIAP-1 BIR-3.
row,Structure (SMILES),Kd
1,CNC(C)C(=O)NC(C(=O)N1CCC(OC)C1Cc1c(-c2[nH]c3cc(F)ccc3c2CC2C(OC)CCN2C(=O)C(NC(=O)C(C)NC)C(C)(C)C)[nH]c2cc(F)ccc12)C(C)(C)C (centres unmarked) [I],< 100 nM
2,CCC(NC)C(=O)NC(C(=O)N1CCC(OC)C1Cc1c(-c2[nH]c3cc(F)ccc3c2CC2C(OC)CCN2C(=O)C(NC(=O)C(CC)NC)C(C)(C)C)[nH]c2cc(F)ccc12)C(C)(C)C (centres unmarked) [J],100 to 1000 nM
3,CNC(C)C(=O)NC(C(=O)N1CCC(OC)C1Cc1c(-c2[nH]c3cc(F)ccc3c2CC2C(OC)CCN2C(=O)C(NC(=O)C(C)NC)C(C)OC)[nH]c2cc(F)ccc12)C(C)OC (centres unmarked) [G],< 100 nM
4,CCNC(C)C(=O)NC(C(=O)N1CCC(O)C1Cc1c(-c2[nH]c3cc(F)ccc3c2CC2C(O)CCN2C(=O)C(NC(=O)C(C)NCC)C(C)OC)[nH]c2cc(F)ccc12)C(C)OC (centres unmarked) [E],< 100 nM
5,CCNC(C)C(=O)NC(C(=O)N1CCC(OC)C1Cc1c(-c2[nH]c3cc(F)ccc3c2CC2C(OC)CCN2C(=O)C(NC(=O)C(C)NCC)C(C)(C)C)[nH]c2cc(F)ccc12)C(C)(C)C (centres unmarked) [L],< 100 nM
6,CNC(CO)C(=O)NC(C(=O)N1CCC(O)C1Cc1c(-c2[nH]c3cc(F)ccc3c2CC2C(O)CCN2C(=O)C(NC(=O)C(CO)NC)C(C)OC)[nH]c2cc(F)ccc12)C(C)OC (centres unmarked) [B],< 100 nM
7,CCC(NC)C(=O)NC(C(=O)N1CCC(O)C1Cc1c(-c2[nH]c3cc(F)ccc3c2CC2C(O)CCN2C(=O)C(NC(=O)C(CC)NC)C(C)OC)[nH]c2cc(F)ccc12)C(C)OC (centres unmarked) [F],< 100 nM
8,CNC(C)C(=O)NC(C(=O)N1CCC(O)C1Cc1c(-c2[nH]c3cc(F)ccc3c2CC2C(O)CCN2C(=O)C(NC(=O)C(C)NC)C(C)(C)C)[nH]c2cc(F)ccc12)C(C)(C)C (centres unmarked) [C],< 100 nM
9,CCC(NC)C(=O)NC(C(=O)N1CCC(O)C1Cc1c(-c2[nH]c3cc(F)ccc3c2CC2C(O)CCN2C(=O)C(NC(=O)C(CC)NC)C(C)(C)C)[nH]c2cc(F)ccc12)C(C)(C)C (centres unmarked) [D],< 100 nM
10,CCNC(C)C(=O)NC(C(=O)N1CCC(OC)C1Cc1c(-c2[nH]c3cc(F)ccc3c2CC2C(OC)CCN2C(=O)C(NC(=O)C(C)NCC)C(C)OC)[nH]c2cc(F)ccc12)C(C)OC (centres unmarked) [K],< 100 nM
11,CNC(C)C(=O)NC(C(=O)N1CCC(O)C1Cc1c(-c2[nH]c3cc(F)ccc3c2CC2C(O)CCN2C(=O)C(NC(=O)C(C)NC)C(C)OC)[nH]c2cc(F)ccc12)C(C)OC (centres unmarked) [A],< 100 nM
12,CNC(C)C(=O)NC(C(=O)N1CCC(C)C1Cc1c(-c2[nH]c3cc(F)ccc3c2CC2C(C)CCN2C(=O)C(NC(=O)C(C)NC)C(C)OC)[nH]c2cc(F)ccc12)C(C)OC (centres unmarked) [M],< 100 nM
13,CCC(NC)C(=O)NC(C(=O)N1CCC(OC)C1Cc1c(-c2[nH]c3cc(F)ccc3c2CC2C(OC)CCN2C(=O)C(NC(=O)C(CC)NC)C(C)OC)[nH]c2cc(F)ccc12)C(C)OC (centres unmarked) [H],< 100 nM

# Same assay, conditions: Table 4; lower of the Kd for XIAP BIR-3 and cIAP-1 BIR-3
row,Structure (SMILES),Kd
1,CNC(C)(C)C(=O)NC(C(=O)N1CC(O)CC1Cc1c(-c2[nH]c3cc(F)ccc3c2CC2CC(O)CN2C(=O)C(NC(=O)C(C)(C)NC)C(C)OC)[nH]c2cc(F)ccc12)C(C)OC (centres unmarked) [N],100 to 1000 nM
